The values that follow come from article PMC6376162, “HEXIM1 Peptide Exhibits Antimicrobial Activity Against Antibiotic Resistant Bacteria Through Guidance of Cell Penetrating Peptide” (Frontiers in Microbiology, 2019).

Values after ≈ are worked out from the molar mass of the structure shown. Residues, ends and D or L forms follow the SMILES beside them.

One data set relates to P. aeruginosa 544. It is filed as cell-based, Pseudomonas aeruginosa. The conditions noted are these: 544, 20 h. How it is done: (§1) Bacterial strains were either purchased from American Type Culture Collection (ATCC, United States) or provided by National University Hospital, Singapore. Prior to assays, all bacteria, except for Enterococcus faecalis, were grown overnight to stationary phase at 37°C in Luria Bertani (LB) broth (Novagen, Germany). The overnight cultures were 10-fold diluted in fresh cation-adjusted Mueller Hinton II broth (MHBII) (Becton Dickinson, United States) and grown for additional few hours at 37°C to obtain mid-log phase culture. E. faecalis strains were grown in M17 broth (Becton Dickenson, United States) for both overnight and mid-log phase culturing. Human keratinocyte cell line, HaCaT, was purchased from Creative Bioarray (United States) and cultured in Dulbecco’s Modified Eagle’s medium with 4.5 g/L glucose, 2 mM L-glutamine, and 10% fetal bovine serum.
(§2) Minimum inhibition concentrations (MICs) were determined by using broth microdilution method in a 96-well microtiter plate according to guidelines of the Clinical and Laboratory Standards Institute ([CLSI, 2012]). Briefly, mid-log phase cultures were diluted with MHBII and added to wells containing serially diluted peptides to give final cell concentration of 5 × 10^5 cells ml^−1. Peptides were prepared in twofold serial dilution series to give a final concentration range from 2 to 128 μM. Cecropin P1 (CECP1) and Cap11-1-18m^2 (CapM2) treated cells were used as positive controls, while untreated cells were used as a negative control.
(§3) To further assess the potency of peptides, wells with no visible growth from MIC tests were subsequently plated on LB agar plates and incubated overnight at 37°C. […] Both MIC and MBC assays were conducted on three to five separate occasions and if results were within one doubling dilutions of each other, the highest reading was recorded for analysis.

Another data set has as its system E. faecalis VRE. It is filed as cell-based, Enterococcus faecalis. The conditions noted are these: 20 h. Here is the method:
as §1, §2, §3

A further data set has as its system S. aureus 43300. It is filed as cell-based, Staphylococcus aureus. The note with it: 43300, 20 h. Here is the method: as §1, §2, §3
Data set [1] has as its system Enterococcus faecalis SEN. It counts as cell-based. The conditions noted are these: 20 h. How it is done:
as §1, §2, §3

The test system of another data set is Escherichia coli 25922. It is filed as cell-based. The conditions noted are these: 25922, 20 h. Here is the method:
as §1, §2, §3

For a further data set, the system named is Escherichia coli BAA2523. It counts as cell-based. The conditions noted are these: BAA2523, 20 h. How it is done:
as §1, §2, §3

Data set [2] deals with Pseudomonas aeruginosa 27853. It counts as cell-based. The note with it: 27853, 20 h. How it is done: as §1, §2, §3
Data set [3] deals with Staphylococcus aureus 29213. It is filed as cell-based. The note with it: 29213, 20 h. Here is the method:
as §1, §2, §3

In a further data set the test system is mammalian cells. Also on record: method as in Neo et al., 2016. The note with it: cited from earlier work.
Data set [4] deals with bacterial translation (E. coli lysate). In words: In vitro protein synthesis assay (RTS 100 E. coli HY Kit, GFP, Western blot). It counts as biochemical, Escherichia coli. The note with it: 10 μM streptomycin, RTS with 5 μg GFP mRNA, 30°C, 6 h; positive control. Here is the method:
The method to study the effect of peptide treatment on in vitro expression of protein was adapted from previous study ([Taniguchi et al., 2016]). RTS^TM 100 E. coli HY Kit (biotechrabbit) was used as a cell-free rapid translation system (RTS) to express green fluorescent protein (GFP) with or without peptide treatment. Streptomycin (Sigma-Aldrich), an antibiotic functioning as an inhibitor of bacterial translation, was used as a positive control. Reaction mixture was prepared as described in the product manual. For the negative control, the remaining 10 μl was topped up with nuclease-free water while for the other reactions, the 10 μl consists of 5 μg GFP mRNA and either nuclease-free water or the indicated treatment (100 μM Pen, Pen-BR, Pen-RRR, CapM2 or 10 μM Streptomycin). Reaction was incubated at 30°C for 6 h before being analyzed with Western blot for the protein level of GFP. To obtain GFP mRNA, control GFP expression vector was first linearized using ApaLI restriction enzyme (New England Biolabs) and then separated via agarose gel electrophoresis. Fragment containing the linearized GFP expression vector was retrieved using FavorPrep GEL Purification Kit (FAVORGEN Biotech Corp.) and subsequently used as the template for MEGAscript^TM T7 Transcription Kit (Thermo Fisher Scientific) to generate GFP mRNA. […]

`CC(C)C[C@H](NC(=O)[C@@H](N)CCC(N)=O)C(=O)NCC(=O)N[C@@H](CCCCN)C(=O)N[C@@H](CCCCN)C(=O)N[C@@H](CCCCN)C(=O)N[C@@H](Cc1c[nH]cn1)C(=O)N[C@@H](CCCNC(=N)N)C(=O)N[C@@H](CCCNC(=N)N)C(=O)N[C@@H](CCCNC(=N)N)C(=O)N1CCC[C@H]1C(=O)N[C@@H](CO)C(=O)N[C@@H](CCCCN)C(=O)N[C@@H](CCCCN)C(=O)N[C@@H](CCCCN)C(=O)N[C@@H](CCCNC(=N)N)C(=O)N[C@@H](Cc1c[nH]cn1)C(=O)N[C@@H](Cc1c[nH]c2ccccc12)C(=O)O` [BR] (H-QLGKKKHRRRPSKKKRHW-OH): the MBC (with P. aeruginosa 544; in the data set with E. faecalis VRE; in the data set with S. aureus 43300; in data set [1]; against Escherichia coli 25922; against Escherichia coli BAA2523) was more than 128 µM in each case. Further, the MBC in data set [2] and in data set [3] was more than 128 µM in each case. Moreover, the MIC (against P. aeruginosa 544; in the data set on E. faecalis VRE; in data set [1]; in the data set on Escherichia coli 25922; with Escherichia coli BAA2523; in [2]) was more than 128 µM throughout. For the same molecule, the MIC in data set [3] amounted to 128 µM (≈ 301 µg/mL). For the same molecule, in the data set with mammalian cells, the “cytotoxic effects on mammalian cells” value is recorded as “failed to cause any detectable cytotoxic effects”.
Take `[H]/N=C(/N)N[C@H]1[C@H](O)[C@@H](O)[C@H](O[C@@H]2O[C@@H](C)[C@](O)(C=O)[C@H]2O[C@@H]2O[C@@H](CO)[C@H](O)[C@@H](O)[C@@H]2NC)[C@@H](N/C(N)=N\[H])[C@@H]1O` [streptomycin, Streptomycin]: the “synthesis of GFP protein (Western blot)” value in data set [4] is given as “significant inhibition”.
